Experimental data published in patent US20150196638A1, “SYSTEM AND METHOD FOR USING ULTRASOUND-STIMULATED MICROBUBBLE EXPOSURES TO INDUCE CERAMIDE ACCUMULATION IN ENDOTHELIAL AND TUMOR CELLS” (priority 2012, published 2015).

Experiments:
[1] = tested on: Human PC3 prostate cancer xenografts; assay: ISEL / H&E cell death histology of PC3 xenograft tumors (Example 1); format: in vivo, mice
Experimental: Human PC3 prostate cancer (ATCC) xenografts were grown in the hind upper leg of SCID-17 mice (Charles River) by injecting 1.0×10̂6 RPMI-1640 media cultured cells subcutaneously (Wisent Biocentre), with 10% characterized serum (HyClone), and 100 U/mL of penicillin/streptomycin (Invitrogen). Tumors were grown to 7-8 mm diameter size before treatment. For treatments, ketamine and xylazine anesthetized mice were used. Vialmix device-prepared DEFINITY® (Lantheus Medical Imaging; N. Billerica, Mass.) microbubbles (perfluoropropane gas/liposome shell) were administered at doses of 3.6×10̂8 microbubbles (L, low dose) and 1.08×10̂9 microbubbles (H, high dose) in […] volumes of prepared bubbles, respectively. The final circulating concentrations were selected to be higher (100- and 300-fold, respectively) than the diagnostic dose used to ensure efficient interactions of the bubbles and microvascular walls.
Mice were immersed in a 37 degree Celsius water bath to permit ultrasound treatment and centered on the tumor. For ultrasound exposures, a focused central frequency 500-kHz transducer (IL0509HP; ValpeyFisher Inc.) with a 28.6-mm transducer element diameter was used. This was attached to a micropositioning system, and excited with sinusoidal wave generated by a waveform generator (AWG520; Tektronix), a pulse-receive power amplifier (RPR4000; Ritec Inc.), and a digital-acquisition system (Acquiris CC103, Agiulent Technologies NY). Tumors were exposed over 50 ms to a 16-cycle tone burst at 500-kHz and 3-kHz pulse repetition frequencies with a 10% duty cycle during the 50-ms window. Treatments were for 5 min, amounting to a 750-ms exposure over 5 min for all mouse treatments, with an average duty cycle of 0.25%. Specifically, at 500 kHz the pulse bandwidth of the 16-cycle tone burst was 0.032 ms. The pulse repetition period (3-KHz pulse repetition frequency) was 0.333,ms, which, over 50 ms, corresponded to 150 periods of 16-cycle tone burst or 4.8 ms (rounded to 5 ms). […] The ultrasound peak negative pressure was 570 kPa measured with a calibrated hydrophone. […]

HUVEC cells = assay: Clonogenic survival assay, HUVEC; format: cell-based; settings: 1 μM
Experimental: All cells were grown at 37 degrees Celsius with 5% CO2. Primary astrocytes (obtained from asmase +/+ and asmase −/− mouse brains, Sunnybrook Health Sciences Centre, Toronto, ON) were cultured in DMEM with 10% fetal bovine serum (FBS) and 5% Penicillin. HUVEC cells (Sunnybrook Health Sciences Centre, Toronto, ON, Canada) were grown in EBM-2 (Lonza, Walkersville, Md. USA) supplemented with 10 ml FBS, 0.2 ml Hydrocortisone, 2 ml hFGF-B, 0.5 ml VEGF, 0.5 ml R3-IGF-1, 0.5 ml ascorbic acid, 0.5 ml hEGF, 0.5 ml GA-1000 and 0.5 ml Heparin using EGM-2 singlequots kits. Breast and PC3 cells were grown in 1640-RPMI medium (Sigma-Aldrich Canada Inc., Oakville, ON, Canada), leukemia (AML, Ontario Cancer Institute, Toronto, ON), and KHT sarcoma cells (Sunnybrook Health Science Centre) were grown in α-MEM (Sigma-Aldrich Canada Inc., Oakville, ON), all with 10% FBS and 5% penicillin. […]
In order to treat the cells, 50 μL of 45 seconds agitated vial-mix DEFINITY® microbubbles (Perflutren lipid microspheres, Lantheus Medical Imaging, Billerica, Mass. USA) and 1.5 ml of the 2×10̂6 cells/ml solution were added to the chamber (for a 3.3% v/v bubbles concentration). […] Transducer characteristics were measured using a calibrated hydrophone in the absence and presence of the treatment set-up. […]

asmase +/+ astrocytes = assay: Clonogenic survival assay, asmase +/+ astrocytes; format: cell-based, mouse
Experimental: All cells were grown at 37 degrees Celsius with 5% CO2. Primary astrocytes (obtained from asmase +/+ and asmase −/− mouse brains, Sunnybrook Health Sciences Centre, Toronto, ON) were cultured in DMEM with 10% fetal bovine serum (FBS) and 5% Penicillin. HUVEC cells (Sunnybrook Health Sciences Centre, Toronto, ON, Canada) were grown in EBM-2 (Lonza, Walkersville, Md. USA) supplemented with 10 ml FBS, 0.2 ml Hydrocortisone, 2 ml hFGF-B, 0.5 ml VEGF, 0.5 ml R3-IGF-1, 0.5 ml ascorbic acid, 0.5 ml hEGF, 0.5 ml GA-1000 and 0.5 ml Heparin using EGM-2 singlequots kits. Breast and PC3 cells were grown in 1640-RPMI medium (Sigma-Aldrich Canada Inc., Oakville, ON, Canada), leukemia (AML, Ontario Cancer Institute, Toronto, ON), and KHT sarcoma cells (Sunnybrook Health Science Centre) were grown in α-MEM (Sigma-Aldrich Canada Inc., Oakville, ON), all with 10% FBS and 5% penicillin. In order to harvest adherent cells, confluent flasks were PBS washed, after which 0.05% trypsin EDTA (Gibco, Carlsbad, Calif. USA) was added for 5 minutes to detach cells. After trypsinization, cells were centrifuged at 440 g for 10 minutes and brought to a final cell concentration of 2×10̂6 cells/ml of medium with 1.5 ml aliquots used for each treatment (i.e., 3×10̂6 cells/sample). In all experiments cells were carefully handled to avoid clumping after typrinsization and this was verified by microscopy in advance of ultrasound treatments.
For ultrasound treatments, a pulse was generated by a 2.86 cm-diameter single element transducer (IL0509HP, 500 kHz center frequency, Valpey-Fisher Inc., Hopkinton, Mass., USA) connected to a micro-positioning system. The set-up also included a cylindrical chamber (10 mm diameter) for cell exposure. The chamber had mylar windows on both sides and a magnetic stirrer to mix cells and bubbles during ultrasound exposure in order to avoid standing wave effects.
In order to treat the cells, 50 μL of 45 seconds agitated vial-mix DEFINITY® microbubbles (Perflutren lipid microspheres, Lantheus Medical Imaging, Billerica, Mass. USA) and 1.5 ml of the 2×10̂6 cells/ml solution were added to the chamber (for a 3.3% v/v bubbles concentration). Insonification took place using a peak negative pressure of 570 kPa using a pulse sequence with a 9.6% duty cycle composed of a 16 cycle tone burst and a pulse repetition frequency of 3 kHz, for a total insonification time of 2,880 milliseconds over 30 seconds. The −6 dB beamwidth for this transducer was […] and the −3 dB beamwidth was 18 mm. Transducer characteristics were measured using a calibrated hydrophone in the absence and presence of the treatment set-up.
Sphingosine-1-Phosphate (S1P) (Biomol International L.P., Plymouth Meeting, Pa. USA) was used to counteract the mechanisms leading to ceramide-mediated apoptotic cell death. In order to treat cells, 1 μM S1P was added to asmase +/+ and asmase −/− culture media one hour before damage treatments with radiation or ultrasound, and was present during trypsinization, and for clonogenic survival assays in media. The rationale for this was that any activation of ceramide-dependent cell death by treatment may take many hours to manifest and should be inhibited long term. Treatment of cells with C2-Ceramide (Sigma-Aldrich) was carried out similarly.
Radiation treatments were carried out by exposing samples to X-ray ionizing radiation (Faxitron Cabinet X-ray, Faxitron X-Ray LLC, IL) at a dose rate of 200 cGy/minute. […]

[2] = tested on: ceramide in PC3 prostate tumors; assay: In vivo ceramide immunohistochemistry staining; set-up: species or system mice; settings: 4 μg IV; 2 or 8 Gy with high microbubble concentration
Description: (A) Quantification of ceramide immunohistochemistry staining of sections of PC3 prostate tumors treated with radiation and/or ultrasound-activated microbubbles. Labels indicate non (Nil), low (Low) and high concentration microbubble exposure (High) and radiation doses (0, 2 or 8 Gy). (B) Quantification of ceramide immunohistochemistry staining for experiments with S1P.
In order to test if ultrasound-stimulated microbubbles in combination with ultrasound could stimulate ceramide formation, experiments were carried out using an additional cohort of 75 animals, with five mice per group. Mice were treated as above with no microbubbles, low, and high bubble concentrations in the presence of ultrasound and combined with 0, 2, and 8 Gy radiation doses given in single fractions as above for nine cohorts of n=5 animals. In addition, 0, 2, and 8 Gy conditions with and without high-concentration microbubble exposure in the presence of ultrasound were carried out in the presence of S1P using modified protocols. This used six cohorts of n=5 mice.
For S1P treatments, 4 μg of S1P in 0.2 mL of PET (5% polyethylene glycol, 2.5% ethanol, and 0.8% Tween-80) was injected intravenously in mice 30 min prior to and 5 min after irradiation or after microbubble exposure with ultrasound and irradiation.

What does the source list for “bFGF: basic fibroblast growth factor (Sigma), a known endothelial cell protector”?
effect of pre-treatment on microbubble-induced cell death ([1]; 0.45 μg IV 1 hour before microbubbles (1% vol/vol) with ultrasound): diminished the cell death; cell death, bFGF-treated animals with ultrasound-stimulated microbubbles versus untreated control ([1]; 0.45 μg IV, P=0.24): no difference

How did the “survival on ceramide exposure” value (HUVEC cells) turn out when `CCCCCCCCCCCCC/C=C/[C@@H](O)[C@H](CO)NC(C)=O` [C2-Ceramide] was run?
Its value is “did not survive”.

What about the cell kill (asmase +/+ astrocytes; 1 μM) of the same molecule?
Its cell kill is “no significant cell kill”.

And the survival (asmase +/+ astrocytes; ceramide alone as a control)?
Its survival is 50±5%.

Which “effect on apoptotic cell death induced by microbubbles and radiation” value ([1]; 4 μg IV 30 min before and 5 min after treatments, 0, 2, 8 Gy with or without high microbubbles) does the source give for `CCCCCCCCCCCCC/C=C/[C@@H](O)[C@@H](N)COP(=O)(O)O` [S1P, Sphingosine-1-Phosphate] here?
Its value is “diminishment of detected apoptotic cell death”.

What about the protection from apoptosis (HUVEC cells; radiation or ultrasound and microbubbles, p<0.01) of the same molecule?
The protection from apoptosis was “significantly protected”.

And the “protective effect on survival” value (asmase +/+ astrocytes; 1 μM, cells treated with either radiation or ultrasound with microbubbles)?
Its value is “no protective effect”.

What about the “protective effect on survival” value (asmase +/+ astrocytes; 1 μM, ultrasound and microbubbles prior to radiation) of the same molecule?
Its value is “protection was detected”.

What about the “radioresistance of wild-type astrocytes” value (asmase +/+ astrocytes; S1P-treated, radiation) of the same molecule?
Its value is “conferred some radioresistance”.

And the “ceramide increases in the presence of S1P” value [2]?
The value was “increases were not apparent”.
